According to patent US20250051344A1, “BIFUNCTIONAL SELECTIVE DEGRADERS OF SMARCA2 AND THERAPEUTIC USES THEREOF” (Nurix Therapeutics, Inc., priority 2023, published 2025):

Legend:
SMARCA2 = biological target: T1, SMARCA2 (Homo sapiens, UniProt P51531); experiment: SMARCA2 Cellular Degradation Assay (Western blot analysis on Jess platform); assay type: cell-based; details: for DC50 / Dmax: cellular degradation; for Fold Selectivity SMARCA4/2: ratio DC50 SMARCA4 / DC50 SMARCA2
T1 construct: endogenous in cells
T1 sequence (P51531 whole entry, species assumed): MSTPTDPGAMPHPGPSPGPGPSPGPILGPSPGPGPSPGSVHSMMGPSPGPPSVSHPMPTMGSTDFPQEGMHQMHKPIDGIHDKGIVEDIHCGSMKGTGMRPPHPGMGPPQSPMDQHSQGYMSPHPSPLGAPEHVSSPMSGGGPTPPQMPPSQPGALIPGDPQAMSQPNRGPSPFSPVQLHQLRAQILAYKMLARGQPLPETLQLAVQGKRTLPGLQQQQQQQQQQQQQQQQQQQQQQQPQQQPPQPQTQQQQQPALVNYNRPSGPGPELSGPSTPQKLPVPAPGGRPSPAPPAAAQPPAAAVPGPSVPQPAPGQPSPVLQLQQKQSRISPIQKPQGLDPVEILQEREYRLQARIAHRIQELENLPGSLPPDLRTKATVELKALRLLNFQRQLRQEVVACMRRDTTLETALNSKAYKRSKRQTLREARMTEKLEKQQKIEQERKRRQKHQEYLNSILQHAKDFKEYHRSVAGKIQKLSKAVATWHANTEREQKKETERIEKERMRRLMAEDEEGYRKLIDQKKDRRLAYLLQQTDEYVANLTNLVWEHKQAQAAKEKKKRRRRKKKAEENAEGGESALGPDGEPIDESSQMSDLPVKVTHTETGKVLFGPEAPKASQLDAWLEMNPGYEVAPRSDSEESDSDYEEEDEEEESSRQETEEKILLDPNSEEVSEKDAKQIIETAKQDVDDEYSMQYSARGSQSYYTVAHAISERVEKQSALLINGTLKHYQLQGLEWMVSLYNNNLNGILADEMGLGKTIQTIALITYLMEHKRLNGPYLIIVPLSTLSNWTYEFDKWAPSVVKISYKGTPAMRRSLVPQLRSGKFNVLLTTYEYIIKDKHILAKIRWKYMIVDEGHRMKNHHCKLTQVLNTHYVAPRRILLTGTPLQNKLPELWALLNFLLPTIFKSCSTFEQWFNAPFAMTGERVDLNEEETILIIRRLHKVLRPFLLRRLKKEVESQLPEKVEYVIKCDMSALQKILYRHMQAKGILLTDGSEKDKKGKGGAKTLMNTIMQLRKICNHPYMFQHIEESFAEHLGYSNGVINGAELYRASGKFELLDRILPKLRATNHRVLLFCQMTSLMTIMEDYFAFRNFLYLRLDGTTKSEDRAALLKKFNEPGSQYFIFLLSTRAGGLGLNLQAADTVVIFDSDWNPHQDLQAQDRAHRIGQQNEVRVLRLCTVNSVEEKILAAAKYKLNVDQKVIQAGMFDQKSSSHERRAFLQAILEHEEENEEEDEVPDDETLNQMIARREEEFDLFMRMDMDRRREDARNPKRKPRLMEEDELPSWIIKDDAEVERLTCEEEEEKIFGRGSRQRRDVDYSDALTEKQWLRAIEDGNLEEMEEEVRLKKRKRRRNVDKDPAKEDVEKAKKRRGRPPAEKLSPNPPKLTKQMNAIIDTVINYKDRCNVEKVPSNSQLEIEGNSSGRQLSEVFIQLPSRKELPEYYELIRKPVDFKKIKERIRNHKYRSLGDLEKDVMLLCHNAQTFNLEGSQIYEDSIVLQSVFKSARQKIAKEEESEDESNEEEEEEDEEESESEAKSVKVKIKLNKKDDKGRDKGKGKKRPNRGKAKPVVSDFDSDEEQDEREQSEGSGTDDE
Method: SMARCA2 Cellular Degradation Assay
Western Blot Analysis for SMARCA2 Degradation
Frozen cell pellets were thawed on ice and resuspended in RIPA lysis buffer (Millipore, Cat. No. 20-188) supplemented with 0.2% SDS (Fisher Scientific, Cat. No. 24730020), 200 mM β-glycerophosphate (Alfa Aesar, Cat. No. J62121), 500 mM NaF (Rigaku, Cat. No. 1008046), protease inhibitor (1 tablet per 10 mL, Sigma, Cat. No. 11836170001), 250 U/μL benzonase (Millipore, Cat. No. 71206), 200 mM sodium orthovanadate (FivePhoton, Cat. No. ActVO-4), and 100 mM PMSF (Sigma, Cat. No. 10837091001). 50 μL lysis buffer was used to lyse each pellet containing 5×10E5-1×10E6 live cells extracted from tumors. Lysates were centrifuged for 10 mins at 20,817×g and lysate supernatants were saved for further analysis. Protein levels were determined by the BCA Assay performed according to manufacturer's protocol (EMD Millipore, Cat. No. 71285-3). Samples were evaluated by Western blot analysis on the Jess Platform (ProteinSimple). Lysates were diluted with complete lysis buffer (as described above) and 5 μg of total proteins were loaded onto each capillary. Samples were prepared using the ProteinSimple EZ Standard Pack 1 (Cat. No. PS-ST01EZ-8; containing tubes with powdered (5×) Fluorescent Master Mix, DTT, and biotinylated ladder) and run using the ProteinSimple 25-Capillary Cartridge kit (Cat. No. SM-W004; containing 25-capillary cartridge Wash reagent, and 10× Sample Buffer reagent), the ProteinSimple Anti-Rabbit HRP Detection Module for Jess (Cat. No. DM-001; containing Antibody Diluent, anti-rabbit secondary antibody, Luminol-S, Peroxide, and Streptavidin-HRP), and the ProteinSimple Anti-Mouse NIR Detection Module for Jess (Cat. No. DM-009; containing Antibody Diluent, anti-mouse NIR secondary antibody, and Streptavidin-NIR) as the following describes. The DTT was reconstituted with 40 μL water to make a 400 mM solution, 20 μL of the DTT solution plus 20 μL of 10× Sample Buffer were added to reconstitute the 5× Fluorescent Master Mix, and 20 μL of H2O was used to reconstitute the biotinylated ladder. For each sample, lysate (4 μL) was combined with 5× Fluorescent Master Mix (1 μL) and heated at 95° C. for 5 minutes. Samples were cooled and stored on ice. Primary antibody solution was made using anti-SMARCA2 antibody (Abcam, Cat. No. 240648, 1:10) and anti-beta-Actin antibody (Cell Signaling Technology, Cat. No. 3700S, 1:25) in antibody diluent. The 25-capillary cartridges were prepared per standard ProteinSimple protocol with each sample in a column. For the biotinylated ladder in column 1, the following were added: 5 µL of ladder sample in Row A, 10 μL of antibody diluent in Rows B and C, 10 μL of Streptavidin-NIR in Row D, and 15 μL of a 50:50 Luminol-s/Peroxide solution in Row E. For each test sample (columns 2-25), the following were added per column: 5 μL of sample in Row A, 10 μL of antibody diluent in Row B, 10 μL of primary antibody solution in Row C, 10 μL of secondary antibody in Row D, and 15 μL of a 50:50 Luminol-S/Peroxide solution in Row E. 500 μL wash buffer was added to the wash buffer wells in the cartridge and cartridge was spun at 1000×g for 5 minutes prior to loading into the Jess. Samples were run using the Chemiluminescence and Fluorescence immunoassays in the ProteinSimple Compass for SimpleWestern program (version 5.0.0). After running, SMARCA2, actin, and background curves were identified in the Compass software; note that in the Compass software, the electropherograms are also visualized as bands for comparison with standard Western blot outputs. The electropherogram area reading for each sample curve was normalized to that of the corresponding actin curve per column following background (capillary background) subtraction using the following equation: […]
Following normalization, the percentage of SMARCA2 remaining per sample relative to the vehicle control was calculated as follows: […]

SMARCA4 = biological target: T2, SMARCA4 (Homo sapiens, UniProt P51532); experiment: Cellular degradation assay, SMARCA4 (Table 1); assay type: cell-based
T2 construct: endogenous in cells
T2 sequence (P51532 whole entry, species assumed): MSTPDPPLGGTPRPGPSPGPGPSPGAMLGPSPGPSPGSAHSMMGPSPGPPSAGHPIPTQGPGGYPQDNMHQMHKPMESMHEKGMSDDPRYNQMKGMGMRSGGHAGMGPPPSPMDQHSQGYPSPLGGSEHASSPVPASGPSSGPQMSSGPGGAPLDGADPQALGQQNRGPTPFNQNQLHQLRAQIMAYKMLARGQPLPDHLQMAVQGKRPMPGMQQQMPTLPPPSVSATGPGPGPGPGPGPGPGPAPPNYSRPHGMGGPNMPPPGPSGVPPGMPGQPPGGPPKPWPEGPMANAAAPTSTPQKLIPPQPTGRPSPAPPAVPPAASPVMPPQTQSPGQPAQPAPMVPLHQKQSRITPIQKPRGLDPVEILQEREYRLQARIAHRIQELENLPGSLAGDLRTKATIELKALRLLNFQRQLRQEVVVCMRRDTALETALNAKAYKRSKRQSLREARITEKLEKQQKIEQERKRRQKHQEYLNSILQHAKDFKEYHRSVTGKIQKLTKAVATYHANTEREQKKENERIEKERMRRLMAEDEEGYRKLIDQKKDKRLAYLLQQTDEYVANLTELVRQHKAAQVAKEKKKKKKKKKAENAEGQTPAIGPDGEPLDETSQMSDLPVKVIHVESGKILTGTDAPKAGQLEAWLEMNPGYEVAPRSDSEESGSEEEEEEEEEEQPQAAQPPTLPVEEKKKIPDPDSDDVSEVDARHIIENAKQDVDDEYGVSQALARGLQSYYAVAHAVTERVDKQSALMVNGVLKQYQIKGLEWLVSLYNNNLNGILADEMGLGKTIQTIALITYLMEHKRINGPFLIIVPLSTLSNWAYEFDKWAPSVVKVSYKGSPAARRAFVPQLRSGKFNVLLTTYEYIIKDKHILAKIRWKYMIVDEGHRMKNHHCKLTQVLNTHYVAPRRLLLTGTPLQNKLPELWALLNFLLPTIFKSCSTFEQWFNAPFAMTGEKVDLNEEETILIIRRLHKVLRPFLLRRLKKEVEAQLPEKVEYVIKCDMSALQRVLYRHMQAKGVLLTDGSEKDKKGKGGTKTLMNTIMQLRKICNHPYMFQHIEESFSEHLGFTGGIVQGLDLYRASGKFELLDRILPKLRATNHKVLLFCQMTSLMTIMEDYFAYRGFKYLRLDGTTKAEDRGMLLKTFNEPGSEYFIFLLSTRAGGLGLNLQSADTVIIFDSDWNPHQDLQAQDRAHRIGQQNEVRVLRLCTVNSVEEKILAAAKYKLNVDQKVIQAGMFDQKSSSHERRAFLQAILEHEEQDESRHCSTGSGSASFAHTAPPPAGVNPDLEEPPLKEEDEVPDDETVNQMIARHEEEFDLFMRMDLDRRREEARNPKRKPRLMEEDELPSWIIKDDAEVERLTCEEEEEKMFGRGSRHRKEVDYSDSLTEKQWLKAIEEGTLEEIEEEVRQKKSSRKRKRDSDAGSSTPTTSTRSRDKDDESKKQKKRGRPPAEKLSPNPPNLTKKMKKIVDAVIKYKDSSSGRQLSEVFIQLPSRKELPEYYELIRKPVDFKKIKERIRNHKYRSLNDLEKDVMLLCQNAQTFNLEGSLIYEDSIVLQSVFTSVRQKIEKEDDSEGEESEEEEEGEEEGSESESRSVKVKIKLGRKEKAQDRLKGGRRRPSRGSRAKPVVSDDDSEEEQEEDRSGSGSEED

Row | SMILES | DC50 (SMARCA2) [nM] | Dmax (SMARCA2) [%] | Fold Selectivity SMARCA4/2 (SMARCA2) | Dmax (SMARCA4) [%] | DC50 (SMARCA4) [nM]
1 | CN(C(=O)C1(Oc2ccccc2)CCN(c2cnnc(-c3ccccc3O)c2)CC1)C1CCN(CC2CCN(c3ccc([C@H]4CCC(=O)NC4=O)cc3)CC2)C2(CC2)C1 (mixture of isomers) [Example 168, N-[(7RS)-4-[(1-{4-[(3R)-2,6-dioxopiperidin-3-yl]phenyl}piperidin-4-yl)methyl]-4-azaspiro[2.5]octan-7-yl]-1-[6-(2-hydroxyphenyl)pyridazin-4-yl]-N-methyl-4-phenoxypiperidine-4-carboxamide] | 18.4 | 90.6 | 6 | 77.3 | 113
2 | O=C1CCC(NC(=O)c2cc(N3CCN(C(=O)C4(c5ccccc5)CCN(c5cnnc(-c6ccccc6O)c5)CC4)CC3)ccn2)C(=O)N1 (racemic) [Example 1, rac-N-[(3r)-2,6-dioxopiperidin-3-yl]-4-(4-{1-[6-(2-hydroxyphenyl)pyridazin-4-yl]-4-phenylpiperidine-4-carbonyl}piperazin-1-yl)pyridine-2-carboxamide] | – | 35.2 | 1 | 13 | –
3 | C[C@H](Oc1ccc(C2CCC(=O)NC2=O)cc1)C1CCN(C(=O)C2(c3ccccc3)CCN(c3cnnc(-c4ccccc4O)c3)CC2)CC1 (mixture of isomers) [Example 2, (3RS)-3-{4-[(1S)-1-(1-{1-[6-(2-hydroxyphenyl)pyridazin-4-yl]-4-phenylpiperidine-4-carbonyl}piperidin-4-yl)ethoxy]phenyl}piperidine-2,6-dione] | – | 53.5 | 1 | 22.1 | –
4 | C[C@@H](Oc1ccc(C2CCC(=O)NC2=O)cc1)C1CCN(C(=O)C2(c3ccccc3)CCN(c3cnnc(-c4ccccc4O)c3)CC2)CC1 (mixture of isomers) [Example 3, (3RS)-3-{4-[(1R)-1-(1-{1-[6-(2-hydroxyphenyl)pyridazin-4-yl]-4-phenylpiperidine-4-carbonyl}piperidin-4-yl)ethoxy]phenyl}piperidine-2,6-dione] | – | 54.2 | 1 | 17.5 | –
5 | O=C1CCC(c2ccc(OC3CCN(C(=O)C4(c5ccccc5)CCN(c5cnnc(-c6ccccc6O)c5)CC4)CC3)cc2)C(=O)N1 (racemic) [Example 4, rac-(3R)-3-{4-[(1-{1-[6-(2-hydroxyphenyl)pyridazin-4-yl]-4-phenylpiperidine-4-carbonyl}piperidin-4-yl)oxy]phenyl}piperidine-2,6-dione] | – | 16.4 | 1 | 9.4 | –
6 | O=C1CCC(c2ccc(OC3CCN(C(=O)C4CCN(C(=O)C5(c6ccccc6)CCN(c6cnnc(-c7ccccc7O)c6)CC5)CC4)CC3)cc2)C(=O)N1 (racemic) [Example 13, rac-(3R)-3-(4-{[1-(1-{1-[6-(2-hydroxyphenyl)pyridazin-4-yl]-4-phenylpiperidine-4-carbonyl}piperidine-4-carbonyl)piperidin-4-yl]oxy}phenyl)piperidine-2,6-dione] | – | 40.3 | 1 | 12.3 | –

The next lines start with the values.

Row | DC50 (SMARCA2) [nM] | Dmax (SMARCA2) [%] | Fold Selectivity SMARCA4/2 (SMARCA2) | Dmax (SMARCA4) [%] | DC50 (SMARCA4) [nM] | SMILES
7 | 13.7 | 75 | 730 | 51.5 | – | O=C1CC[C@H](c2ccc(N3CCC(CN4CC[C@H]5[C@H](CCN5C(=O)C5(c6ccccc6)CCN(c6cnnc(-c7ccccc7O)c6)CC5)C4)CC3)cc2)C(=O)N1 (mixture of isomers) [Example 155, (3R)-3-[4-(4-{[(3aRS,7aSR)-1-{1-[6-(2-hydroxyphenyl)pyridazin-4-yl]-4-phenylpiperidine-4-carbonyl}-octahydro-1H-pyrrolo[3,2-c]pyridin-5-yl]methyl}piperidin-1-yl)phenyl]piperidine-2,6-dione]
8 | 463 | 59.8 | 21.62 | 22.6 | – | O=C1CCC(c2ccc(OCC3CCN(C(=O)C4(c5ccccc5)CCN(c5cnnc(-c6ccccc6O)c5)CC4)CC3)cc2)C(=O)N1 (racemic) [Example 5, rac-(3R)-3-{4-[(1-{1-[6-(2-hydroxyphenyl)pyridazin-4-yl]-4-phenylpiperidine-4-carbonyl}piperidin-4-yl)methoxy]phenyl}piperidine-2,6-dione]
9 | 121 | 63.6 | 82.86 | 31.5 | – | O=C1CCC(c2ccc(N3CCC(CN4CCN(C(=O)C5(c6ccccc6)CCN(c6cnnc(-c7ccccc7O)c6)CC5)CC4)CC3)cc2)C(=O)N1 (racemic) [Example 6, rac-(3R)-3-(4-{4-[(4-{1-[6-(2-hydroxyphenyl)pyridazin-4-yl]-4-phenylpiperidine-4-carbonyl}piperazin-1-yl)methyl]piperidin-1-yl}phenyl)piperidine-2,6-dione]
10 | – | 53.1 | 1 | 32 | – | O=C1CCC(c2ccc(N3CCC(CNC4CCN(C(=O)C5(c6ccccc6)CCN(c6cnnc(-c7ccccc7O)c6)CC5)CC4)CC3)cc2)C(=O)N1 (racemic) [Example 7, rac-(3R)-3-[4-(4-{[(1-{1-[6-(2-hydroxyphenyl)pyridazin-4-yl]-4-phenylpiperidine-4-carbonyl}piperidin-4-yl)amino]methyl}piperidin-1-yl)phenyl]piperidine-2,6-dione]
11 | 21.2 | 69.1 | 472.68 | 38.9 | – | O=C1CCC(c2ccc(OCC3CCN(CC4CCN(C(=O)C5(c6ccccc6)CCN(c6cnnc(-c7ccccc7O)c6)CC5)CC4)CC3)cc2)C(=O)N1 (racemic) [Example 11, rac-(3R)-3-[4-({1-[(1-{1-[6-(2-hydroxyphenyl)pyridazin-4-yl]-4-phenylpiperidine-4-carbonyl}piperidin-4-yl)methyl]piperidin-4-yl}methoxy)phenyl]piperidine-2,6-dione]
12 | 144 | 61.7 | 69.67 | 36.9 | – | O=C1CCC(c2ccc(OC3CCN(CC4CCN(C(=O)C5(c6ccccc6)CCN(c6cnnc(-c7ccccc7O)c6)CC5)CC4)CC3)cc2)C(=O)N1 (racemic) [Example 12, rac-(3R)-3-[4-({1-[(1-{1-[6-(2-hydroxyphenyl)pyridazin-4-yl]-4-phenylpiperidine-4-carbonyl}piperidin-4-yl)methyl]piperidin-4-yl}oxy)phenyl]piperidine-2,6-dione]
13 | – | 22.2 | 1 | 15.2 | – | O=C1CCC(c2ccc(OCC3CCN(C(=O)C4CCN(C(=O)C5(c6ccccc6)CCN(c6cnnc(-c7ccccc7O)c6)CC5)CC4)CC3)cc2)C(=O)N1 (racemic) [Example 14, rac-(3R)-3-(4-{[1-(1-{1-[6-(2-hydroxyphenyl)pyridazin-4-yl]-4-phenylpiperidine-4-carbonyl}piperidine-4-carbonyl)piperidin-4-yl]methoxy}phenyl)piperidine-2,6-dione]
14 | – | 44.1 | 1 | 27.7 | – | O=C1CCC(c2ccc(N3CCN(C(=O)CC4CCN(C(=O)C5(c6ccccc6)CCN(c6cnnc(-c7ccccc7O)c6)CC5)CC4)CC3)cc2)C(=O)N1 (racemic) [Example 18, rac-(3R)-3-(4-{4-[2-(1-{1-[6-(2-hydroxyphenyl)pyridazin-4-yl]-4-phenylpiperidine-4-carbonyl}piperidin-4-yl)acetyl]piperazin-1-yl}phenyl)piperidine-2,6-dione]
